These results are taken from publication PMC12491715 (Acta Pharmaceutica Sinica. B, 2025).

≈ marks a conversion by molar mass, not a printed value.

Data set [1] can be described thus: Thermodynamic solubility. It counts as physicochemical. To be noted: thermodynamic from solid. The procedure: The supernatants were diluted 1:5 with 50% MeCN or used directly for UPLC analysis (calibration curve was constructed from 0.5–100 mg/L standard solutions of compound 8).
The nature of data set [2]: MTS assay, metabolic activity. It counts as cell-based. To be noted: human, SH-SY5Y neuroblastoma cells, read-out: cytotoxic EC50. How it is done:
Cell culture and treatments The human neuroblastoma SH-SY5Y cell line was purchased from American Type Culture Collection (Manassas, VA, USA). Cells were cultured in Advanced Dulbecco’s modified Eagle’s medium (Gibco, Thermo Fisher Scientific, Waltham, MA, USA) supplemented with 10% fetal bovine serum (FBS, Gibco), 2 mmol/L L-glutamine, 50 U/mL penicillin and 50 μg/mL streptomycin (Sigma, St. Louis, MO, USA) in a humidified atmosphere of 95% air and 5% CO2 at 37 °C, and grown to 80% confluence. Prior to cell treatment, complete medium was replaced with serum-reduced medium (i.e., with 2% FBS). Compounds were prepared as a stock solution of 50 mmol/L in DMSO.
MTS assay SH-SY5Y cells were seeded in 96-well plates (10^4/well) and assessed by MTS ([3-(4,5-dimethylthiazol-2-yl)-5-(3-carboxymethoxyphenyl)-2-(4-sulfophenyl)-2H-tetrazolium, inner salt) assay for their response to compounds. Cells were treated with increasing concentrations of compounds (0.1–10 μmol/L for 5, 1–100 μmol/L for 6–8) in a serum-reduced medium, and metabolic activity was assessed after 24 h (5) or 48 h (6–8) using the CellTiter 96® Aqueous One Solution Cell Proliferation Assay (Promega, Madison, WI, USA), in accordance with the manufacturer’s instructions. Absorbance was measured with an automatic microplate reader (Tecan Safire^2, Switzerland) at 492 nm. Results are presented as a percentage of the control (DMSO).
(In general: Tetrazolium assays rely on reduction of a dye to a coloured formazan, in cell work by metabolically active cells.)

Data set [3] deals with BALB/c mice. Kind of data set: Acute in vivo toxicity. The text has this: All mice used were 9–15 weeks old wild-type BALB/c mice bred in the Laboratory of Animal Genomics at the Faculty of Veterinary Medicine, University of Ljubljana. For intravenous administration, 4 males and one female were additionally purchased from Envigo RMS Holding Corp. Mice were conventionally bred in open polycarbonate cages (Tecniplast, Buguggiate, Italy) and provided with wood chip bedding (Lignocel®, Rettenmaier and Sons, Germany). Mice were kept under standard conditions, i.e., a 12:12 dark–light cycle (LED, CCT 3000 K, ≤ 25 lux above the cage), at temperature 21–24 °C, and 50%–60% humidity. They were fed irradiated rodent diet with minimal levels of phytoestrogens (Teklad global 16% protein rodent diet®, BN 2916, Envigo, Udine, Italy) and had access to drinkable tap water ad libitum. The in vivo study was evaluated by the National Ethics Committee for Animal Experiments and approved by the Veterinary Administration of the Republic of Slovenia; license number document no. U34401-10/2021/8, U34401-10/2021/13, and U34401-10/2021/1.
According to the OECD guidelines for acute toxicity testing, compound 8 was initially tested at 10 mg/kg dosage (10-fold the intended therapeutic dose (1 mg/kg)) in 3 female mice and repeated on 3 additional animals. […] After this fasting period, the animals were weighed and compound 8 was administered by oral gavage at 200 μL/20 g body weight using flexible plastic feeding tubes (20G × 30 mm, Instech Laboratories, USA). After administration, the animals were not fed for an additional hour. The mice were then observed regularly for the first 24 h, with particular attention paid to the first 4 h, and then daily for a total of 14 days, with attention paid to the changes in respiratory rate, heart rate, skin and fur, eyes and mucous membranes, behavioural patterns, and especially to the acute CNS toxicity symptoms (tremors, twitching, salivation, diarrhoea, lethargy, sleep, coma). At the end of the 14-day observation period, all experimental animals were euthanized with CO2 and cervical dislocation.

The subject of data set [4] is ICR mice icv-injected with Aβ1–42. Kind of data set: Morris water maze, mice model with icv-injection of Aβ1–42. In kind it is in vivo. To be noted: 1–5 mg/kg, ip, once a day; comparable to rivastigmine 4 (1 mg/kg, ip). How it is done: Mice model with icv-injection of Aβ1–42 The experiments were performed using ICR male mice (8–10 weeks old, weight 18–20 g), which were purchased from Shanghai Bikai Animal Breeding Factory (Shanghai, China). Animals were housed in cages (6 mice per cage) at a constant temperature of 25±2 °C, humidity of 55%±10% and a light/dark (12:12) cycle. The mice had unlimited access to food and water prior to the experiment. Specified conditions for the maintenance of mice were ensured throughout the experiments, including tree bedding (Yizheng Anlimao Biotechnology Co., Ltd., China) and lab feed (Zimao, China). For behavioural tests, mice were selected randomly, each group consisted of 6 mice. The experiments were performed between 9 am and 3 pm.
According to the literature procedure, recombinant human hexafluoroisopropanol-pretreated Aβ1–42 from Merck Millipore (Darmstadt, Germany) was dissolved in 1% DMSO, diluted with saline to the final concentration of 2 mg/mL, and incubated for 72 h to form oligomers. […]
Behavioural assays The Morris water maze was placed in a lighted room at 25 °C, and it was divided into four equal quadrants. […] The time spent searching for the missing platform was recorded by Xeye Aba image processing system (Beijing Zhongshi Dichuang Technology Development Co., Ltd.) and analysed by GraphPad Prism 5.

For orientation: solubility means how much of the substance goes into solution per volume. Broadly, the EC50 is the concentration giving half of the maximal effect. In the case of `CCN(CC)C(=O)n1cnc(C2(CC)Cc3ccccc3C2)c1` [Compound 8, N,N-Diethyl-4-(2-ethylindan-2-yl)-1H-imidazole-1-carboxamide], the solubility at 24 h in data set [1] (1% Tween 20 in water, aqueous with cosolvent or surfactant or cyclodextrin, 1% Tween 20/water) turned out to be 615 ± 172 µg/mL (≈ 1970 µM); in data set [1] (PBS, aqueous buffer), 100 ± 20 µg/mL (≈ 321 µM); in data set [1] (pH 2 solution, pH 2, aqueous buffer) it was 2420 ± 108 µg/mL (≈ 7760 µM); in data set [1] (pH 4 solution, pH 4, aqueous buffer), 166 ± 12 µg/mL (≈ 533 µM); in data set [1] (pH 6 solution, pH 6, aqueous buffer) it was 136 ± 1 µg/mL (≈ 437 µM); in data set [1] (pH 10 solution, pH 10, aqueous buffer) it was 103 ± 17 µg/mL (≈ 331 µM). The compound also gave a solubility at 24 h in data set [1] (water) of 115 ± 26 µg/mL (≈ 369 µM). In addition, in data set [2], the EC50 at 48 h is over 100 µM. Moreover, the “effects in preliminary safety testing” value in data set [3] (1 mg/kg p.o., mice) was “no effects were observed”; in data set [3] (10 mg/kg p.o., mice), “some adrenergic symptoms”. Further, the survival entry in data set [3] (10 mg/kg p.o., 14-day observation) is recorded as “All animals survived”. In addition, in data set [3] (10 mg/kg p.o., mice), the “acute cholinergic side effects (salivation, tremors)” value is on record as “No acute cholinergic side effects”. Further, in data set [3] (10 mg/kg p.o., mice), the “onset of symptoms after administration” value is 15 to 30 min. Also, in data set [3] (10 mg/kg p.o., mice), the “time after which all effects subsided” value was in the range of 4 to 5 h. Moreover, the “performance in Morris water maze” value in data set [4] is “outperformed saline-treated mice (model)”.
